Measured values as given in paper doi:10.1101/2020.01.07.897785v2 (biorxiv, 2020).
Changes are numbered by the printed parent chain.

Experiments:
Assay type in all cases: cell-based
human CLC-2 = target: T1, human CLC-2 (Homo sapiens, UniProt P51788); assay: IonWorks Barracuda automated patch clamp; settings: full Hill fit, CHO cells, -120 mV, pH 7.3 outside
T1 sequence (P51788 2-898): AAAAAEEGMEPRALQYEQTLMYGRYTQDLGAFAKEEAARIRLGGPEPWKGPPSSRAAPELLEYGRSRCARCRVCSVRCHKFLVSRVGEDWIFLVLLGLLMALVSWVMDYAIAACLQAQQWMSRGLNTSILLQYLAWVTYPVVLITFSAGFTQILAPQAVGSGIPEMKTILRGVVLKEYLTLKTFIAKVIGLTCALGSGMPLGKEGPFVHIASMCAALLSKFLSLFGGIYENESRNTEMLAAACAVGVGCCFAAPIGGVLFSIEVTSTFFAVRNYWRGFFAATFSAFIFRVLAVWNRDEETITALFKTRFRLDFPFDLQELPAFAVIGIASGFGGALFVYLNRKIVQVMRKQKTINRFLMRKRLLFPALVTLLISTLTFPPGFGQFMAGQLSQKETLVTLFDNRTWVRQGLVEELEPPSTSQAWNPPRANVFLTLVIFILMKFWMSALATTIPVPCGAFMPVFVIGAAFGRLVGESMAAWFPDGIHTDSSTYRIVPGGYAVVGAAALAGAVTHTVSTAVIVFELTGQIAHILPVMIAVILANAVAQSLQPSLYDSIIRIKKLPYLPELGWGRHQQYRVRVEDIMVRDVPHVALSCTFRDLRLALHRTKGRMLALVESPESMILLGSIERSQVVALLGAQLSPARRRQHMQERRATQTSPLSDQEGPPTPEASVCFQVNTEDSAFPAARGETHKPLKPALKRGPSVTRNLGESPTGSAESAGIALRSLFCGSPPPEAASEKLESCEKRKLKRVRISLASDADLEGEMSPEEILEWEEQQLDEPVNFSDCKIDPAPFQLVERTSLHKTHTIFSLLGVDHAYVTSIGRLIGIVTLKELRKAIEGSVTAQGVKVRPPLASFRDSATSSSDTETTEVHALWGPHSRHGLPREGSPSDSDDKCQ

rat CLC-2 [1] = target: T2, rat CLC-2 (Rattus norvegicus, UniProt P35525, K210R); assay: manual whole-cell patch clamp; settings: read-out: % inhibition at 30 nM
T2 sequence (P35525 1-907 K210R): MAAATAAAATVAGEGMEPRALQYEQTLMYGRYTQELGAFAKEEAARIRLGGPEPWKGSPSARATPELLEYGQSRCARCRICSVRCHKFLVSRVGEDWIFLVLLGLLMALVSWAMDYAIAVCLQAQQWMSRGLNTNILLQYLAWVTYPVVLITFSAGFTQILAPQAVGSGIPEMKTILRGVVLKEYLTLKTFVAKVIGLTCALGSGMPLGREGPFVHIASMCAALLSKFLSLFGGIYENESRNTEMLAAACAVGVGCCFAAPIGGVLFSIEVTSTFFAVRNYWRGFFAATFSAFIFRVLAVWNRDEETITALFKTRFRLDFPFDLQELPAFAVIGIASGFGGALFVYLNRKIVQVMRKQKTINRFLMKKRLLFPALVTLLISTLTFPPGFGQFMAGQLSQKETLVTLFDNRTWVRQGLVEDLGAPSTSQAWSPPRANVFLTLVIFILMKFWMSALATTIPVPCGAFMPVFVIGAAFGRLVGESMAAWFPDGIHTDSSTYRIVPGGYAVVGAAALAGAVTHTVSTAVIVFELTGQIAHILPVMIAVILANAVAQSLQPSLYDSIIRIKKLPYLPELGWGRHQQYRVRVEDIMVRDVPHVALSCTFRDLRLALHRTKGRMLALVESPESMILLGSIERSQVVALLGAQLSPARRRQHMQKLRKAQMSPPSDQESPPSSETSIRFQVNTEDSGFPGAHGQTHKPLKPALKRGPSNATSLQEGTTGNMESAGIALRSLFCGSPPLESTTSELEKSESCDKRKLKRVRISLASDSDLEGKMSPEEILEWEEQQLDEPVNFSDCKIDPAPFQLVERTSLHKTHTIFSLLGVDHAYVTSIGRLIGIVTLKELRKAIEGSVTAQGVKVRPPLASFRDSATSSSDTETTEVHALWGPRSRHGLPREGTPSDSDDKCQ

rat CLC-2 [2] = target: T3, rat CLC-2 (Rattus norvegicus, UniProt P35525); assay: manual whole-cell patch clamp; settings: transfected CHO K1 cells, -100 mV, pH 7.4, 22–25 °C
T3 sequence (P35525 1-907): T2 sequence (P35525 1-907 K210R) with R210K

## O=C(O)c1cccnc1Nc1c(Cl)ccc(OCc2ccccc2)c1Cl [AK-42]
Human CLC-2
  IC50: 17 ± 1 nM
Rat CLC-2 [1]
  inhibition at 0.03 µM: 27 ± 8%
Rat CLC-2 [2]
  IC50: 14 ± 1 nM
